From publication PMC7932537, “Quantitative profiling of protease specificity” (PLoS Computational Biology, 2021)

Tests used:
[1] = biological target: T1, MMP-2 (Homo sapiens, UniProt P08253); assay: K(obs) of individual phage substrates (set of 1369); assay type: biochemical; conditions: MMP2
T1 sequence (P08253 110-660): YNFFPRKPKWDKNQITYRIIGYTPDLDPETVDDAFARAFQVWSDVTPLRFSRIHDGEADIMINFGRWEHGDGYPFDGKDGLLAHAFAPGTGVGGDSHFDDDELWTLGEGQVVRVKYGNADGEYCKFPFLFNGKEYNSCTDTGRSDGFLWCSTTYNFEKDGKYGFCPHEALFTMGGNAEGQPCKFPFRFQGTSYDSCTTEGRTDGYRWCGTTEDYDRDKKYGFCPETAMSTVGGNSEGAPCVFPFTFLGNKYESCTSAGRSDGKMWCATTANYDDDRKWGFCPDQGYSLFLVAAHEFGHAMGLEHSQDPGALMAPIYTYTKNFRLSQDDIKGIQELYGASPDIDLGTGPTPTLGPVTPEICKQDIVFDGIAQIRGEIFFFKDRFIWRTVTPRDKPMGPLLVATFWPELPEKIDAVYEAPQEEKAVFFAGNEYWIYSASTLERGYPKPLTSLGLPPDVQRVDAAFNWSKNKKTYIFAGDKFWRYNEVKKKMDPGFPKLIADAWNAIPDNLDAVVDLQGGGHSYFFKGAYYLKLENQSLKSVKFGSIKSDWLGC

[2] = biological target: MMP-9 (Homo sapiens, UniProt P14780); assay: as above; assay type: biochemical; conditions: MMP9
MMP-9, sequence (P14780 94-707): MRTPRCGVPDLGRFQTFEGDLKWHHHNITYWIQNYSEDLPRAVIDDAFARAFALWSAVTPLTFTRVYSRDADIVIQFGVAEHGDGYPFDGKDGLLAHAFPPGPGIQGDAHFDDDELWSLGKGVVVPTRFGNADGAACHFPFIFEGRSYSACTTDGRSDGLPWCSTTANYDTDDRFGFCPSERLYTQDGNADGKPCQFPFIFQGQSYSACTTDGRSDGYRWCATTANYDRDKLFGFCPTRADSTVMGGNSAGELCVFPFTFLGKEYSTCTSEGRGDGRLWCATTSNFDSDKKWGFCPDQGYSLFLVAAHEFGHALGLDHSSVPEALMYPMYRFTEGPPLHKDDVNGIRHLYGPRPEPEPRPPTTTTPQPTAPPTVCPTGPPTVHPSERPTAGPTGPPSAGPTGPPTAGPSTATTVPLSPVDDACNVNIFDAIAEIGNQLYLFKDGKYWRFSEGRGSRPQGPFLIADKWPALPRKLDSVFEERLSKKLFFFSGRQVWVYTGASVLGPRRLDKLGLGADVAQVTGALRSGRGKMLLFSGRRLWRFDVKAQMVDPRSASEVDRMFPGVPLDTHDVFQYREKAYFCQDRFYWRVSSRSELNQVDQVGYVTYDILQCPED

[3] = system: MMP-2; assay: Substrate phage display with NGS: relative probability (RP) of P3-P1' tetramer clusters; assay type: biochemical, human; conditions: MMP2;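 also: ratio of tetramer probability after protease selection to that in naive phage library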
[4] = individual phage substrates, set of 1369 peptides, cleavage position marked by hyphen in sequence
[5] = individual phage substrates, set of 1369 peptides, hyphen in sequence marks cleavage position
[6] = RP of the P3-P1' tetramer contained in the substrate (substrate phage display with NGS)
[7] = individual phage substrate of the set of 1369 peptides, cleavage position marked by '-'
[8] = individual phage substrate of the set of 1369 peptides, dash in the sequence marks the cleavage position
[9] = RP of the P3-P1' tetramer contained in the substrate

Row | Substance | Kobs [1, 4] [M⁻¹ s⁻¹] | Kobs [2, 5] [M⁻¹ s⁻¹] | relative probability (RP) [3, 6] | Kobs [1, 7] [M⁻¹ s⁻¹] | Kobs [2, 8] [M⁻¹ s⁻¹] | relative probability (RP) [3, 9]
1 | GSGFS-LRTWT | 0 | 0 | 0.09752 | – | – | –
2 | GSGQH-LRKST | 171.876 | 0 | 1.164 | – | – | –
3 | GSGQH-LRVHT | 113.394 | 0 | 1.164 | – | – | –
4 | GSGRA-MYGTT | – | – | – | 1513.13 | 2476.66 | 2.5449
5 | GSGRH-LIKVT | 386.839 | 27.918 | 3.598 | – | – | –
6 | GSGRN-LRLQT | – | – | – | 551.253 | 113.394 | 8.812
7 | GSGWA-LKKVT | 0 | 0 | 0.09159 | – | – | –
8 | GSGYH-LRHTT | – | – | – | 231.616 | 0 | 0.08149
9 | GSGYS-LIALT | 142.481 | 142.481 | 0.04707 | – | – | –
10 | GSHSN-LMTAS | 12792.1 | 56.119 | 27.7336 | – | – | –
11 | GSLAH-LTASG | – | – | – | 12792.1 | 0 | 32.813
12 | GSMNS-LRTAS | – | – | – | 3741.87 | 874.197 | 18.7113
13 | GSPAS-LRTAS | – | – | – | 12792.1 | 12792.1 | 36.4285
14 | GSPMH-LITAS | 6688.74 | 9740.44 | 30.095 | – | – | –
15 | GSPYG-LLTAS | – | – | – | 8941.32 | 12792.1 | 32.9966
16 | GSTRN-LITAS | 1870.4 | 990.764 | 12.3403 | – | – | –
17 | GSVHH-LITAS | – | – | – | 0 | 0 | 14.1228
18 | GSVMN-LTASG | 3344.37 | 2409.72 | 18.6016 | – | – | –
19 | GSVNY-LVTAS | 0 | 0 | 8.427 | – | – | –
20 | GSVWA-LTASG | 1870.4 | 4922.1 | 12.7502 | – | – | –
21 | GSVWH-VRTAS | 231.616 | 0 | 0 | – | – | –
22 | GTALP-LRTAS | – | – | – | 6396.07 | 3253.29 | 22.1772

Row | Substance | Kobs [1, 4] [M⁻¹ s⁻¹] | Kobs [2, 5] [M⁻¹ s⁻¹] | relative probability (RP) [3, 6] | Kobs [1, 7] [M⁻¹ s⁻¹] | Kobs [2, 8] [M⁻¹ s⁻¹] | relative probability (RP) [3, 9]
23 | GTLAA-MSTAS | 4205.91 | 0 | 30.6825 | – | – | –
24 | GTLMG-LYTAS | – | – | – | 7015.91 | 171.876 | 28.5499
25 | GTLRS-LITAS | – | – | – | 12792.1 | 1465.65 | 15.1373
26 | GTPMQ-LYTAS | – | – | – | 5667.28 | 12792.1 | 27.6586
27 | GTPSA-LTTAS | 12792.1 | 12792.1 | 36.1873 | – | – | –
28 | GTPYG-LVTAS | – | – | – | 12792.1 | 12792.1 | 32.9966
29 | GTPYP-LRTAS | 12792.1 | 12792.1 | 30.8058 | – | – | –
30 | GTVRS-LITAS | 8941.32 | 2476.66 | 12.3051 | – | – | –
31 | GVARP-LSTAS | – | – | – | 5090.5 | 1610.61 | 27.8706
32 | GVHFH-LITAS | – | – | – | 0 | 0 | 0.09413
33 | GVIRF-LRTAS | – | – | – | 10866.7 | 9740.44 | 12.1004
34 | GVLQK-LVTAS | 654.784 | 0 | 13.1993 | – | – | –
35 | GVLRM-LSTAS | – | – | – | 0 | 951.362 | 9.0498
36 | GVLYH-LQTAS | 171.876 | 292.668 | 4.529 | – | – | –
37 | GVVLN-LETAS | – | – | – | 1196.62 | 1465.65 | 18.9065
38 | GVVRG-LSTAS | – | – | – | 9740.44 | 4613.14 | 29.092
39 | GVYAH-LLTAS | – | – | – | 323.705 | 171.876 | 18.7061
40 | GVYGA-LRTAS | – | – | – | 12792.1 | 142.481 | 28.8499
41 | GVYQG-LRTAS | – | – | – | 1373.05 | 799.117 | 4.332
42 | GVYRH-MRTAS | 0 | 0 | 0.3212 | – | – | –
43 | GWAYN-MRTAS | 292.668 | 2280.5 | 10.8408 | – | – | –
44 | GWPAG-LTTAS | – | – | – | 12792.1 | 12792.1 | 36.0156
